Assay results published in patent US9604923B2 (H. LEE MOFFITT CANCER CENTER AND RESEARCH INSTITUTE, INC., priority 2006, dated 2017).
Where two headings read alike, the source gives them in different places. One block for each compound: values may come before it.

What was measured:
STAT3 [1] = molecular target: T1, STAT3 (Mus musculus, UniProt P42227); test: Inhibition of STAT3 dimerization, EMSA assay; type: binding; parameters: nuclear extracts were pre-incubated with compound for 30 minutes at room temperature prior to incubation with the radiolabeled probe; endogenous in cells; host or cells: nuclear extracts per the general EMSA method
STAT3 [2] = molecular target: T1, STAT3; test: Inhibition of STAT3 dimerization, EMSA assay; type: binding; parameters: endogenous in cells; host or cells: nuclear extracts per the general EMSA method
Stat5:5 = test: STATs DNA-binding activity in vitro, EMSA with MGFe probe; parameters: species or system mouse
[3] = system: pShc, pErk1/2, pSrc, pTyr profile in NIH3T3/v-Src or EGF-stimulated NIH3T3/hEGFR; test: Western blot for other signaling proteins; type: cell-based, mouse
[4] = system: β-Casein promoter-driven Luc; test: Luciferase reporter assay, v-Src co-transfected NIH3T3; type: cell-based, mouse; conditions: 100 μM, 24 hours
Text: (§1) […]; Turkson, J. et al. Mol. Cell.
[…]. […] […].

NIH3T3/v-Src [5] = test: Viable cell number by trypan blue exclusion; type: cell-based, mouse; conditions: 100 μM, four days
Text: (§2) […]. Values are the mean and S.D. of 3-4 independent determinations.
(§3) . The present inventors next determined whether this Stat3 activity inhibitor is able to inhibit the anchorage-dependent and -independent (transformation) growth of human and mouse cancer cell lines and whether this inhibition is dependent on the presence of persistently-active Stat3. […]. […]

NIH3T3 [6] = test: Viable cell number by trypan blue exclusion; type: cell-based, mouse; conditions: 100 μM, four days
Text: as §2, §3

[7] = system: MDA-MB-231, MDA-MB-435 and MDA-MB-468; test: Viable cell number by trypan blue exclusion; type: cell-based, human; conditions: 100 μM, four days
Text: as §2, §3

MDA-MB-453 [8] = test: Viable cell number by trypan blue exclusion; type: cell-based, human; conditions: 100 μM, four days
Text: as §2, §3

NIH3T3/v-Ras = test: Soft-agar colony formation assay; type: cell-based, mouse; conditions: 100 μM every 3 days
Description: (§4) Briefly, each well contained 1.5 ml of 1% agarose in Dulbeco's modified Eagle's medium as the bottom layer and 1.5 ml of 0.5% agarose in Dulbeco's modified Eagle's medium containing 4000 or 6000 NIH3T3/v-Src or NIH3T3/v-Ras fibroblasts, respectively, as the top layer. […]. Colonies were quantified by staining with 20 μl of 1 mg/ml iodonitrotetrazolium violet, incubating at 37° C. overnight, and counting the next day.

NIH3T3/v-Src [9] = test: Soft-agar colony formation assay; type: cell-based, mouse; conditions: 100 μM every 3 days
Description: as §4

MDA-MB-435 = test: Apoptosis by Annexin V binding and Flow Cytometry; type: cell-based, human
Description: (§5) In some cases, cells were first transfected with Stat3C, ST3-NT, or ST3-SH2 domain or mock-transfected for 24 hours prior to treatment with compound for an additional 24-48 hours. Cells were then detached and analyzed by Annexin V binding (BD Biosciences, San Diego) according to the manufacturer's protocol and Flow Cytometry to quantify the percent apoptosis.

MDA-MB-453 [10] = test: Apoptosis by Annexin V binding and Flow Cytometry; type: cell-based, human; conditions: 100 μM or less, 48 hours
Description: as §5

NIH3T3/v-Src [11] = test: Apoptosis by Annexin V binding and Flow Cytometry; type: cell-based, mouse
Description: . In FIG. 4B, human breast carcinoma MDA-MB-231 cells were transfected with pcDNA3 (mock), Stat3C or untransfected (Non), or the v-Src transformed mouse fibroblasts (NIH3T3/v-Src) were transfected with pcDNA3 (mock), N-terminus of Stat3 (ST3-NT) or the Stat3 SH2 domain (ST3-SH2) for […]. […]. Values are the mean and S.D. of six independent determinations. Western blot data are representative of 3 independent analyses.
as §5

NIH3T3 [12] = test: Apoptosis by Annexin V binding and Flow Cytometry; type: cell-based, mouse
Description: as §5

MDA-MB-231 = test: Apoptosis by Annexin V binding and Flow Cytometry; type: cell-based, human; conditions: untransfected or mock-transfected cells; 100 μM
Description: as §1, §5
[…]. To this end, the breast carcinoma MDA-MB-231 cells that harbor activated Stat3 were transiently transfected with Stat3C and evaluated for apoptosis. […] […]. There is increased in the background level of cell death, which could be due to the effects of transfection. […].

[13] = system: Cyclin D1, Bcl-xL and Survivin in NIH3T3/v-Src; test: Immunoblot of Stat3-regulated gene products; type: cell-based, mouse; conditions: 100, 48 hours
[14] = system: Cyclin D1, Bcl-xL and Survivin in MDA-MB-231; test: Immunoblot of Stat3-regulated gene products; type: cell-based, human; conditions: 100, 48 hours
[15] = system: human breast (MDA-MB-231) tumor; test: Human breast tumor xenografts in athymic nude mice; type: in vivo, mouse
[16] = molecular target: FLAG-ST3:Stat3-YFP complex (Homo sapiens, UniProt P40763); conditions: NIH3T3/v-Src, 24 hours
[17] = system: constitutively-active Stat3 in NIH3T3/v-Src fibroblasts; conditions: 100 μM, by 24 hours
[18] = system: constitutively-active Stat3 in MDA-MB-231, MDA-MB-435 and MDA-MB-468 cells; conditions: 100 μM; by 24 hours in text, 48 hours in FIG. 2E legend
[19] = system: pTyr705 Stat3 in NIH3T3/v-Src fibroblasts; conditions: 100 μM, 24-hour treatment
[20] = system: Stat3-dependent luciferase reporter pLucTKS3; conditions: dose-dependent manner
[21] = system: Stat3-independent luciferase reporter pLucSRE; conditions: 100 μM, 24 hours
Stat3 [22] = molecular target: Stat3 (Homo sapiens, UniProt P40763); conditions: 10, 30, and 100 μM pre-incubation
Chain of Stat3 (P40763 2-770 limits assumed): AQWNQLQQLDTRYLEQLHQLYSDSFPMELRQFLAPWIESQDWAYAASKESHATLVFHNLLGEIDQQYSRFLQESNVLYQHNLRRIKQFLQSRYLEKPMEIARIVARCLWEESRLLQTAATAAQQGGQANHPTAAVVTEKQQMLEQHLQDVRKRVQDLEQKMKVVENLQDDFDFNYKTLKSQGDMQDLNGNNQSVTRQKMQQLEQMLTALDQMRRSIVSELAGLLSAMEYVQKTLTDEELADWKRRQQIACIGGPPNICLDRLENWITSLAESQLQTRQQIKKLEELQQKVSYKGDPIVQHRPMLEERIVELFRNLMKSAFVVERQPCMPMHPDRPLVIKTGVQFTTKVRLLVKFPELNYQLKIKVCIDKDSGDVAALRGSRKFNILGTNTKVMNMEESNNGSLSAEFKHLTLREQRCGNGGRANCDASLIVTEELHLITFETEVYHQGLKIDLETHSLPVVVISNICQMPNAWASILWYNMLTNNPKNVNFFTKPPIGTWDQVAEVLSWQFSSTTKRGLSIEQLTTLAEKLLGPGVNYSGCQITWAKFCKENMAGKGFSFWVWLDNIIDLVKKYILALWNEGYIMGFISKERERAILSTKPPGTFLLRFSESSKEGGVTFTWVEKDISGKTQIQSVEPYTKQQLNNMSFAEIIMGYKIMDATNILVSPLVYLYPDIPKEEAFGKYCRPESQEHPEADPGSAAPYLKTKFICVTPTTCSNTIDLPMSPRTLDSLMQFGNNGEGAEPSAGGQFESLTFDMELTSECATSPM

T1 sequence (P42227 2-770 limits assumed): as the sequence (P40763 2-770 limits assumed) above, with E759D counted along it
Chain of FLAG-ST3:Stat3-YFP complex (P40763 whole entry, one chain of several): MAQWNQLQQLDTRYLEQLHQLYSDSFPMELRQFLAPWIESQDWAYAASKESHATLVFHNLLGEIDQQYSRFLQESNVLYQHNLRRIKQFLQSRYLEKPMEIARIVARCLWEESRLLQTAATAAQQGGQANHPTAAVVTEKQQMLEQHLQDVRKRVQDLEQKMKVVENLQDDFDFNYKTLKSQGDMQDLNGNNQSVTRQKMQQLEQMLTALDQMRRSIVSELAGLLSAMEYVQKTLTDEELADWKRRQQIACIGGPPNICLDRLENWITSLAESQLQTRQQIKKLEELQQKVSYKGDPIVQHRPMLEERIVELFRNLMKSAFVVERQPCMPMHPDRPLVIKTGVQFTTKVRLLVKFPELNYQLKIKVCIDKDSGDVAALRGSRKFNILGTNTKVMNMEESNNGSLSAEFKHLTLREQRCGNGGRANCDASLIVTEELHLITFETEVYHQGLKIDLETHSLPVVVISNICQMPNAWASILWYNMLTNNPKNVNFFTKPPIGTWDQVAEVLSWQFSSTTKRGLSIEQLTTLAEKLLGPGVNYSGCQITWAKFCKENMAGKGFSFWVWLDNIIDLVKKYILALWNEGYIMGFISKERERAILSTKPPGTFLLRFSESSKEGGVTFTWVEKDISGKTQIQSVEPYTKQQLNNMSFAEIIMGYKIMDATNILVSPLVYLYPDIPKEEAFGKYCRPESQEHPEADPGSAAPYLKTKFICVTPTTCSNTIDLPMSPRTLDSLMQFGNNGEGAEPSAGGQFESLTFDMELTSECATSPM

IC50 (STAT3 [1]): > 500 µM
Compound: O=C(COS(=O)(=O)c1ccc(-c2ccccc2)cc1)Nc1ccc(C(=O)O)c(O)c1 [Compound 19]

IC50 (STAT3 [1]): > 500 µM
Compound: O=C(CNS(=O)(=O)c1ccc(-c2ccccc2)cc1)Nc1ccc(C(=O)O)c(O)c1 [Compound 21]

IC50 (STAT3 [1]): > 500 µM
Compound: CCOC(=O)c1ccc(NC(=O)CC(CNS(=O)(=O)c2ccc(Oc3ccccc3)cc2)c2ccc(Cl)cc2)cc1 (centres unmarked) [Compound 37]

melting point: 187 to 189 °C
Compound: CCOC(=O)c1ccc(NC(=O)CC(CNS(=O)(=O)c2ccc(C)cc2)c2ccc(Cl)cc2)cc1 (centres unmarked) [Compound 38, Ethyl 4-(3-(4-chlorophenyl)-4-(4-methylphenylsulfonamido)butanamido)benzoate]

melting point: 147 to 149 °C
Compound: CCOC(=O)c1ccc(NC(=O)CC(CNS(=O)(=O)c2ccc(Oc3ccccc3)cc2)c2ccccc2)cc1 (centres unmarked) [Compound 56, Ethyl 4-(4-(4-phenoxyphenylsulfonamido)-3-phenylbutanamido)benzoate]

melting point: 141 to 143 °C
Compound: CCOC(=O)c1ccc(NC(=O)CC(CNS(=O)(=O)c2ccc(Oc3ccccc3)cc2)c2ccc3ccccc3c2)cc1 (centres unmarked) [Compound 58, Ethyl 4-(3-(naphthalen-2-yl)-4-(4-phenoxyphenylsulfonamido)butanamido)benzoate]

melting point: 187 to 189 °C
IC50 (STAT3 [2]): > 500 µM
Compound: O=C(CC(CNS(=O)(=O)c1ccc(Oc2ccccc2)cc1)c1ccccc1)Nc1ccc(C(=O)O)cc1 (centres unmarked) [Compound 60, 4-(4-(4-phenoxyphenylsulfonamido)-3-phenylbutanamido)benzoic acid]

melting point: 183 to 184 °C
Compound: O=C(CC(CNS(=O)(=O)c1ccc(Oc2ccccc2)cc1)c1ccc2ccccc2c1)Nc1ccc(C(=O)O)cc1 (centres unmarked) [Compound 61, 4-(3-(naphthalen-2-yl)-4-(4-phenoxyphenylsulfonamido)butanamido)benzoic acid]

melting point: 153 to 155 °C
IC50 (STAT3 [2]): > 500 µM
Compound: O=C(CC(CNS(=O)(=O)c1ccc(Oc2ccccc2)cc1)c1ccc2ccccc2c1)Nc1ccc(C(=O)O)c(O)c1 (centres unmarked) [Compound 65, 2-hydroxy-4-(3-(naphthalen-2-yl)-4-(4-phenoxyphenylsulfonamido)butanamido)benzoic acid]

melting point: 109 to 111 °C
IC50 (STAT3 [2]): > 500 µM
Compound: CCOC(=O)c1ccc(NC(=O)CCc2ccccc2)cc1 [Compound 70, Ethyl 4-(3-phenylpropanamido)benzoate]

melting point: 255 to 257 °C
IC50 (STAT3 [2]): > 500 µM
Compound: O=C(CCc1ccc2ccccc2c1)Nc1ccc(C(=O)O)cc1 [Compound 71, 4-(3-(Naphthalen-2-yl)propanamido)benzoic acid]

preference for Stat3 over Stat5 (less potency for Stat5) (Stat5:5; DNA-binding activity): 2 fold
IC50 (Stat5:5; Table 4, listed as 74859, read-out: IC50 values for the inhibition of STATs DNA-binding activity in vitro, Stat5:5): 166 µM
v-Src-mediated induction of β-Casein promoter Luc [4]: not affected
FLAG-ST3 protein in the Stat3-YFP immunoprecipitates [16]: no detectable level
Stat3-YFP in the FLAG-ST3 immunoprecipitates [16]: significantly reduced
v-Src-mediated pLucTKS3 induction [20]: significantly inhibited
v-Src-mediated induction of pLucSRE [21]: not affected
Stat3 activity in control tumor tissue lysates (Stat3 [22]): dose-dependent abrogation
Compound: Cc1ccc(S(=O)(=O)OCC(=O)Nc2ccc(C(=O)O)c(O)c2)cc1 [Compound S3I-201, 2-Hydroxy-4-(2-(tosyloxy)acetamido)benzoic acid]
phosphorylation of Shc (pShc), Erk1/2 (pErk1/2), or Src (pSrc) ([3]; 100 μM, 24 hours): no significant effect
total Erk1/2 protein levels ([3]; 24 hours): unchanged
pTyr profile, anti-pTyr antibody 4G10 clone ([3]; NIH3T3/v-Src, 24-hour treatment): no significant changes
viable cell numbers and growth (NIH3T3/v-Src [5]): significantly reduced viable cell numbers and inhibited growth
growth and viability (NIH3T3 [6]): not significantly altered
viable cell numbers and growth [7]: significantly reduced viable cell numbers and inhibited growth
growth and viability (MDA-MB-453 [8]): not significantly altered
soft-agar growth (NIH3T3/v-Ras): unaffected
growth in soft-agar suspension (NIH3T3/v-Src [9]): significantly inhibited
sensitivity to apoptosis induction (MDA-MB-435; 30 μM): more sensitive
apoptosis (MDA-MB-435; 30-100, 48 hours): significant apoptosis
sensitivity to apoptosis induction (MDA-MB-453 [10]): less sensitive
apoptosis (NIH3T3/v-Src [11]; 30-100, 48 hours): significant apoptosis
apoptosis (NIH3T3/v-Src [11]; cells overexpressing the ST3-NT region): strong induction of apoptosis
apoptosis (NIH3T3/v-Src [11]; mock-transfected cells): strongly induced
apoptosis (NIH3T3/v-Src [11]; overexpression of the Stat3-SH2 domain): diminished the apoptotic effects
sensitivity to apoptosis induction (NIH3T3 [12]; 100 μM or less, 48 hours): less sensitive
cytotoxicity (NIH3T3 [12]; 300 μM or higher, independent of Stat3 activation status): general, non-specific cytotoxicity
apoptosis (MDA-MB-231): 50-80%
expression of the Cyclin D1, Bcl-xL and Survivin proteins [13]: significant reduction in expression
expression of the Cyclin D1, Bcl-xL and Survivin proteins [14]: significant reduction in expression
tumor growth compared to control (vehicle-treated) tumors ([15]; 5 mg/kg i.v. every 2 or every 3 days for two weeks): strong growth inhibition
tumor growth upon termination of treatment ([15]; data not shown): no resumption of tumor growth
total Stat3 protein in residual tumor tissue ([15]; treated mice T1 and T2): remained unchanged
pTyr Stat3 (pYStat3) in residual tumor tissue ([15]; treated mice T1 and T2 compared to control): minimal to no detection
Stat3 DNA binding activity in residual tumor tissue (EMSA) ([15]; treated mice T1 and T2 compared to control tumor): strong inhibition
constitutive Stat3 activation [17]: significantly inhibited
constitutive Stat3 activation [18]: significantly inhibited
pTyr705 Stat3 levels [19]: significantly diminished
total Stat3 protein level [19]: remained unchanged
